Data: ChEMBL document CHEMBL5346895, “Small molecule inhibitors of intestinal epithelial anion exchanger SLC26A3 (DRA) with a luminal, extracellular site of action” (Eur J Med Chem, 2023)

Tests used:
[1] = target: Cystic fibrosis transmembrane conductance regulator (Homo sapiens) (UniProt P13569); assay: Inhibition of CFTR (unknown origin) at 10 uM by YFP-based assay relative to control
[2] = target: T1, Solute carrier family 26 member 6 (Homo sapiens) (UniProt Q9BXS9); assay: Inhibition of SLC26A6 (unknown origin) at 10 uM by YFP-based assay relative to control
T1 sequence (whole entry): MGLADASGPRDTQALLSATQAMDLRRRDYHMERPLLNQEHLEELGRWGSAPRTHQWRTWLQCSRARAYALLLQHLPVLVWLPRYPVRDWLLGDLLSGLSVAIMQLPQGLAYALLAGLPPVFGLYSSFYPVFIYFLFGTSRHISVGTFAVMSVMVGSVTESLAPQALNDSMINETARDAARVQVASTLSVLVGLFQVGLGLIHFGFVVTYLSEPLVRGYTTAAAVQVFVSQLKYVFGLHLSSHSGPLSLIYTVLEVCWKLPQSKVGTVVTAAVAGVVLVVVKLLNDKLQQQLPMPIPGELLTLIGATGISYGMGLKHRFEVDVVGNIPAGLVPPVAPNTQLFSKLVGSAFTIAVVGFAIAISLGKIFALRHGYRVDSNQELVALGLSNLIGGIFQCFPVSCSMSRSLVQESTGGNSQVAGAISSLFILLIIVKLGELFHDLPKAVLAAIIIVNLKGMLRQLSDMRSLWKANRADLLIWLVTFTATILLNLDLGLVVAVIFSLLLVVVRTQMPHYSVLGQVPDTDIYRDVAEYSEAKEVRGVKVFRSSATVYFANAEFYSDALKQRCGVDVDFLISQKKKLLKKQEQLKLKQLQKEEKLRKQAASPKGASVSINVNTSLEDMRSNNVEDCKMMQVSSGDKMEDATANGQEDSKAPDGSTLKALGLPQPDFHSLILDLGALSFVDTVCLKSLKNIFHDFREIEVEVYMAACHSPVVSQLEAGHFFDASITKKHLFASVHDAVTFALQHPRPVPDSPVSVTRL

[3] = target: T2, Solute carrier family 26 member 9 (Homo sapiens) (UniProt Q7LBE3); assay: Inhibition of SLC26A9 (unknown origin) at 10 uM by YFP-based assay relative to control
T2 sequence (whole entry): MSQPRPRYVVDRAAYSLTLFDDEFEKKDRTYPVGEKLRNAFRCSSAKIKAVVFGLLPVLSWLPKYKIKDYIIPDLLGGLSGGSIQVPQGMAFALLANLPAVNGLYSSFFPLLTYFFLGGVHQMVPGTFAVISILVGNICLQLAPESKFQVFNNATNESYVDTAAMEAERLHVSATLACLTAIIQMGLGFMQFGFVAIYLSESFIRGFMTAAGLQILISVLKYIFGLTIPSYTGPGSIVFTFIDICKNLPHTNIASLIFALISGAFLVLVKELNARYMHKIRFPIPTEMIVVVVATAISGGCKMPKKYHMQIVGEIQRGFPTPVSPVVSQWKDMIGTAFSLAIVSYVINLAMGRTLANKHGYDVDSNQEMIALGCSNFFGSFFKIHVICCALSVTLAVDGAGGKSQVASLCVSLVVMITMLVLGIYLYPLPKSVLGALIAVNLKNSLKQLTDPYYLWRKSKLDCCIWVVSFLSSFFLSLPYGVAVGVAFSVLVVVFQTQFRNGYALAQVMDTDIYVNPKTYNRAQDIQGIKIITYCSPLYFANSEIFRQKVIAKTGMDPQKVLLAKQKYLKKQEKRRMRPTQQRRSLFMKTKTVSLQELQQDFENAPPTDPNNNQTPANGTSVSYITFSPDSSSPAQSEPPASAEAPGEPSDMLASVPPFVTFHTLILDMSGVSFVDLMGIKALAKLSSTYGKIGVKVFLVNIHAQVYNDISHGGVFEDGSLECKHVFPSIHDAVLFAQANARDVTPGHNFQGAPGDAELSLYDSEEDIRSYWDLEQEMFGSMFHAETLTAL

[4] = target: T3, Anoctamin-1 (Homo sapiens) (UniProt Q5XXA6); assay: Inhibition of TMEM16A (unknown origin) at 10 uM by YFP-based assay relative to control
T3 sequence (whole entry): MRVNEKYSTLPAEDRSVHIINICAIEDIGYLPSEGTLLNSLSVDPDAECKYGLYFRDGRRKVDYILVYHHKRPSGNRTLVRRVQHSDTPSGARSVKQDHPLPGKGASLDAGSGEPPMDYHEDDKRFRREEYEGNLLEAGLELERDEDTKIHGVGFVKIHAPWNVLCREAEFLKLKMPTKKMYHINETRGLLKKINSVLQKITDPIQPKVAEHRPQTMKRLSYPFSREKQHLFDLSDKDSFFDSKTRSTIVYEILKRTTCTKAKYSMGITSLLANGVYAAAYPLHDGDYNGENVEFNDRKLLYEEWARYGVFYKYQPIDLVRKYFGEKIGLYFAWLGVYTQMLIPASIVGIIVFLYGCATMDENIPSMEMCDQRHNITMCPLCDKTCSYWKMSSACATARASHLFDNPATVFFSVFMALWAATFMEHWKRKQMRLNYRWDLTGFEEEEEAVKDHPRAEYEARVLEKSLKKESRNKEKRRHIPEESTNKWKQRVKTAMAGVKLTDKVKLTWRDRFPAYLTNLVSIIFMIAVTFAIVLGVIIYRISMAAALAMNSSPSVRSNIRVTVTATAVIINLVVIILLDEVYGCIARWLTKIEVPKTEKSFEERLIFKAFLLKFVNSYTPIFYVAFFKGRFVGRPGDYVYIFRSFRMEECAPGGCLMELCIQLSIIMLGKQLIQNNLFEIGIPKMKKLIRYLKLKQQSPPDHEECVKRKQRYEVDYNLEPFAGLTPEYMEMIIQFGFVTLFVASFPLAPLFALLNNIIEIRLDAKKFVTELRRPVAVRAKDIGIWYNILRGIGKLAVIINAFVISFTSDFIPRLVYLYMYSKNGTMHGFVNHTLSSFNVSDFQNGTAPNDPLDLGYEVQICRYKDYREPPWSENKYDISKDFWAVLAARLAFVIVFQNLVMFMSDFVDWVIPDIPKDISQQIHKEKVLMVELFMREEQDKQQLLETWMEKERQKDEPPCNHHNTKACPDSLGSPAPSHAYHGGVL

Cystic fibrosis transmembrane conductance regulator (Homo sapiens), sequence (P13569 whole entry, looked up): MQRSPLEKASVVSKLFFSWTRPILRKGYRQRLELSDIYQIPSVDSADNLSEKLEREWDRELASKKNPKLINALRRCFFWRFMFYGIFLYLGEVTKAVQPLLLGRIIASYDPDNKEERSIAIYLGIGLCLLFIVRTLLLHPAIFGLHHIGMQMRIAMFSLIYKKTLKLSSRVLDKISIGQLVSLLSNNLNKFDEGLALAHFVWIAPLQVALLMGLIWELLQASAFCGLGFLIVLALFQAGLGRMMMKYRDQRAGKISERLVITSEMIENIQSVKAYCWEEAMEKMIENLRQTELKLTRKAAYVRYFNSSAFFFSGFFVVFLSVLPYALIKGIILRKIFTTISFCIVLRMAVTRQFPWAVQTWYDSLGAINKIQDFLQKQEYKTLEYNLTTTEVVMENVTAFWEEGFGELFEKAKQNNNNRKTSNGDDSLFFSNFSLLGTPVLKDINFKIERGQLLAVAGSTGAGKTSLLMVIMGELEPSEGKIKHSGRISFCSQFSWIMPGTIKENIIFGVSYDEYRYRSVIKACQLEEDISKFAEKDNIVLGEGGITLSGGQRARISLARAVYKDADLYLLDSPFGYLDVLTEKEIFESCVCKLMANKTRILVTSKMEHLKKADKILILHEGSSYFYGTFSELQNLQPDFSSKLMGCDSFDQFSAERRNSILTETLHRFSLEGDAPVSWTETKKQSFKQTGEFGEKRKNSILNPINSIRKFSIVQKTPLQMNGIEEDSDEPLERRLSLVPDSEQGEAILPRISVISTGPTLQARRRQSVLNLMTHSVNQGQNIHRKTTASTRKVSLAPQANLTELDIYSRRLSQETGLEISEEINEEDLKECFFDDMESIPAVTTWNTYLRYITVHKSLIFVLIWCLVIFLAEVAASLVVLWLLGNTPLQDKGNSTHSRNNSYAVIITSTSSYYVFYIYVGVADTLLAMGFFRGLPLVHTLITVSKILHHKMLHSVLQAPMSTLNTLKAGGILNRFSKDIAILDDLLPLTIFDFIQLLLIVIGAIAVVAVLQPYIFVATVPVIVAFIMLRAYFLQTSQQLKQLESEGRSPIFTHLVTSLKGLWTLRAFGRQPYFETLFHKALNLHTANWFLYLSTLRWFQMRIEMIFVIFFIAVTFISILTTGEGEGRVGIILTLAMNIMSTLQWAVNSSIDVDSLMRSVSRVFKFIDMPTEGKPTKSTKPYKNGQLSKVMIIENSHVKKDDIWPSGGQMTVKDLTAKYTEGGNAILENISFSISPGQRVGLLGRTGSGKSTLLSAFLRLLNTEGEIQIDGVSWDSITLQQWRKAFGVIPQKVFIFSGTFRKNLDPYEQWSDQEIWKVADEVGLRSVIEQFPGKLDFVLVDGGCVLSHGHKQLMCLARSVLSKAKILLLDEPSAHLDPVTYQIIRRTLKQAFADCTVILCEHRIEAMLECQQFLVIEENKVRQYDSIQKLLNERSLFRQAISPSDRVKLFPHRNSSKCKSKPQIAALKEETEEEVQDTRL

inhibition [1] [%] | inhibition [2] [%] | inhibition [3] [%] | inhibition [4] [%] | Compound
12 | 37 | -8 | 2 | Cc1ccccc1COc1ccc2oc(-c3ccccc3)c(C(=O)O)c2c1
-2 | 4 | -2 | -1 | O=C(Nc1cccc(-c2nc3ccccc3c(=O)o2)c1)c1ccc(Cl)cc1
4 | 9 | 22 | 4 | O=c1cc(COc2ccccc2Cl)nc2scc(-c3ccccc3)n12
5 | 32 | -2 | 83 | Cc1cc(C)cc(N(C)S(=O)(=O)c2nnc(NC(=O)COc3ccc(C)c(C)c3)s2)c1
